Entries after “also recorded” stand apart in the source; their conditions may differ.
Columns and labels:
Format in all cases: cell-based, human
SH-SY5Y cells = assay: MTT assay to measure cell viability
Procedure: Cell viability was detected using an MTT assay kit (Z-Cytox). Briefly, the SH-SY5Y cells were seeded on a 96-well plate at a density of 2×10^4 cells/well with 100 μL of a culture medium. After 24 hours, the SH-SY5Y cells were treated with AKNS-2 and/or MPP^+ having desired concentrations to identify cytotoxicity of AKNS-2 and MPP^+. After 24 hours, 10 μL of the MTT reagent was added to each well of the 96-well plate including the cells. Absorbance was measured at 450 nm using a microplate spectrophotometer (BioTek, Vt., USA). […] The next day, absorbance was measured at 1 hour after adding the MTT reagent thereto.

[1] = system: GFP-RFP-LC3-II puncta in SH-SY5Y cells; assay: Tandem fluorescent protein quenching assay (RFP-GFP-LC3); settings: transfected SH-SY5Y cells, AKNS-2 10 μM + Baf 100 nM
Procedure: SH-SY5Y cells were cultured in a 24-well plate at a density of 8×10^4 cells/well on a glass cover slip. Transfection was performed in accordance with guidelines of the autophagy tandem RFP-GFP-LC3B kit. After culturing the cells for 24 hours, the cells were treated with an LC3B reagent. After the transfected cells were incubated for 24 hours, 50 nM Wart or 100 nM Baf was administered thereto, and then AKNS-2 (10 μM) was added thereto. The cells were immobilized with 4% paraformaldehyde and permeabilized with 0.1% Triton X100. Nuclei thereof were stained with 4,6-diamidino-2-phenylindole (DAPI, 25 μg/mL). Fluorescent signals were detected using a confocal microscope (Leica, Solms, Germany).

[2] = system: autophagy-related protein markers (LC3-II, p62, p-AMPK, p-Erk, p-ULK, p-mTOR) in SH-SY5Y cells; assay: Western blot of autophagy-related protein markers in SH-SY5Y cells
Procedure: (§1) Human neuroblastoma (SH-SY5Y) cells were purchased from the American Type Culture Collection (Manassas, Va., USA) and cultured in DMEM supplemented with 10% heat-inactivated FBS and 1% penicillin/streptomycin. The SH-SY5Y cells were cultured at 37° C. in a humid atmosphere containing 5% CO2. […] The SH-SY5Y cells were transfected with AMPK siRNA and then administered with AKNS-2 at 36 hours after siRNA transfection. […] After 24 hours from treatment with the samples, the SH-SY5Y cells were recovered and used for subsequent analysis. At 24 hours after drug treatment, the culture medium was removed from the 6-well plate, and the cells were gently washed once with cold saline. Subsequently, 1 mL of cold saline was added to each well, and cells attached to the bottom were floated by rubbing the bottom with a 1 mL pipette. The suspension was collected in a 1.5 mL tube and centrifuged at 4° C. at 13000×g for 5 minutes. After removing a supernatant, 50 μL of a RIPA lysis buffer including a protease inhibitor cocktail (Roche, Mannheim, Germany) and purchased from Cell Signaling Technology (Danvers, Mass., USA) was added to the cell pellet. After shaking the mixture at 4° C. for 30 minutes, the obtained cells were centrifuged at 4° C. at 13000×g for 20 minutes. A supernatant was collected therefrom, and a concentration of proteins was measured using a standard curve constructed using BSA by the Bradford method. Then, the supernatant was diluted with a loading buffer and heated at 99° C. for 5 minutes. Resultant cells were used in a subsequent western blot analysis. Protein markers contained in lysates of the SH-SY5Y cells and brain tissue of the mice (SNpc and ST) were measured by western blot analysis. Briefly, after determining a concentration, a protein sample (20 μg) was separated by 8%, 10%, or 15% sodium dodecyl sulfate-polyacrylamide gel electrophoresis (SDS-PAGE). Then, proteins separated on the gel were transferred to a polyvinylidene fluoride (PVDF) membrane for 45 minutes using a Trans-Blot Turbo Transfer System (Bio-Rad, USA). […] The membrane was further incubated with monoclonal primary antibodies derived from rabbits (anti-GAPDH, anti-AMPK, anti-p-AMPK, anti-ULK, anti-p-ULK555, anti-Erk, anti-p-Erk, anti-mTOR, anti-p-mTOR, anti-LC3B, anti-TH, and anti-α-synuclein antibodies). The primary antibodies were diluted in a blocking buffer at a ratio of 1:1000 and incubated overnight at 4° C. On the second day, the membrane was washed with TBST three times (10 minutes each) and incubated at room temperature in a horseradish peroxidase-conjugated goat anti-rabbit IgG secondary antibody (diluted in a blocking buffer at a ratio of 1:2000). After incubating in the secondary antibody for 1 hour, the membrane was washed for 30 minutes. The protein blots on the membrane were developed using an ECL detection kit and visualized using an LAS-4000 mini system (Fujifilm, Japan). The intensity of the protein blots was quantified using Multi Gauge software (Fujifilm, Japan).

[3] = system: LC3, p62, TH and α-synuclein in SH-SY5Y cells; assay: Western blot of LC3, p62, TH and α-synuclein in MPP^+-treated SH-SY5Y cells (in vitro PD model)
Procedure: as §1

[4] = 10 μM U0126 30 minutes before AKNS-2 (5 μM and 10 μM)
[5] = 3-MA 5 mM 30 minutes before AKNS-2 10 μM

Structure (SMILES): C[n+]1ccc(-c2ccccc2)cc1.[I-] [MPP^+, 1-methyl-4-phenylpyridinium (MPP^+) iodide, reference compound]
- cell viability (MTT) (SH-SY5Y cells; MPP^+ alone, 2 mM): significantly decreased cell viability

Structure (SMILES): CO/C1=C\C(C)=C\[C@@H](C)[C@@H](O)[C@@H](C)C/C(C)=C/C=C/[C@H](OC)[C@@H]([C@@H](C)[C@@H](O)[C@H](C)[C@@]2(O)C[C@@H](O)[C@H](C)[C@@H](C(C)C)O2)OC1=O [Baf, bafilomycin A1]
- AKNS-2-enhanced accumulation of LC3-II puncta with bafilomycin A1 [1]: increased green fluorescence and decreased red fluorescence
- AKNS-2-enhanced accumulation of LC3-II puncta with bafilomycin A1 ([1]; listed as bafilomycin A1): AKNS-2-induced autophagy is inhibited

Structure (SMILES): N#CC(=C(/N)Sc1ccccc1N)/C(C#N)=C(\N)Sc1ccccc1N [Compound U0126, reference compound]
- AKNS-2-induced LC3-II expression in presence of U0126 [2, 4]: a significant decrease was observed in the expression of LC3-II; also recorded: blocked the effects of AKNS-2 (5 μM and 10 μM) on increasing the expression of LC3-II
- AKNS-2-inhibited p-mTOR expression in presence of U0126 [2, 4]: considerably restored
- AKNS-2-increased p-ULK expression in presence of U0126 ([2]; 10 μM U0126 + AKNS-2 10 μM): canceled out the effects of AKNS-2 (10 μM) on an increase in expression of p-ULK
- protective effect of AKNS-2 on cell viability in presence of U0126 (SH-SY5Y cells; 10 μM U0126 + AKNS-2 (5 μM and 10 μM) + 2 mM MPP^+): cancels out protective effects of AKNS-2 on cell viability; also recorded: such enhancement was canceled out
- AKNS-2 effect on α-synuclein in presence of U0126 ([3]; 10 μM U0126 + AKNS-2 + 2 mM MPP^+): the protective effects were blocked
- AKNS-2 effect on TH expression in presence of U0126 ([3]; 10 μM U0126 before AKNS-2 and 2 mM MPP^+): the effects of AKNS-2 on increasing the expression of TH were inhibited

Structure (SMILES): Cn1cnc(N)c2ncnc1-2 [Compound 3-MA, 3-methyladenine, reference compound]
- AKNS-2-decreased p62 expression in presence of 3-MA [2, 5]: increases p62 expression; also recorded: remarkably blocked the inhibitory effects of AKNS-2 on the expression level of p62
- AKNS-2-up-regulated LC3-II expression in presence of 3-MA [2, 5]: decreases LC3-II expression; also recorded: the increased expression was significantly decreased
- AKNS-2 effect on TH expression in presence of 3-MA ([3]; 3-MA + AKNS-2 + MPP^+): advantageous effects of AKNS-2 were canceled out
- expression of LC3-II with 3-MA ([3]; 3-MA vs group co-administered with AKNS-2 and MPP^+): significantly inhibited the expression of LC3-II

— patent US12234257B2, “Triterpene saponin derivative and use thereof” (KOREA INSTITUTE OF SCIENCE AND TECHNOLOGY, priority 2020, dated 2025)
